pEC50: −log10 of the molar value.
Molecular target: T1, human mAChR M4 (Homo sapiens, UniProt P08173)
T1 construct: expressed in transfected cells; host or cells: CHO-K1 (American Type Culture Collection), stably expressing hM4 and Gqi5
T1 sequence (P08173 1-479): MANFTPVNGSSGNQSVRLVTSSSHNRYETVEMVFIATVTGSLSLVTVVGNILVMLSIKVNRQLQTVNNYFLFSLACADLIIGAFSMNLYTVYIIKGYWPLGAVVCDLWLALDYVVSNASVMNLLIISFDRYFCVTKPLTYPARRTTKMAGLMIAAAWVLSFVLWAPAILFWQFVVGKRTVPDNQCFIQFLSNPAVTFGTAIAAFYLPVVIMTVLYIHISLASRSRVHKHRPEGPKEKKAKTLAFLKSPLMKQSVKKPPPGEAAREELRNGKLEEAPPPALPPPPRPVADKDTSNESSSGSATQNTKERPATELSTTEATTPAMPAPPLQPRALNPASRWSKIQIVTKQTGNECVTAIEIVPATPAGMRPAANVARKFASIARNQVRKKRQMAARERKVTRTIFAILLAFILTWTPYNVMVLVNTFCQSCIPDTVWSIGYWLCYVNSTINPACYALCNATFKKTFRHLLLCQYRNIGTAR
Experiment: mAChR M4 cell-based functional assay: calcium mobilization (Fluo-4, FDSS), potentiation of EC20 acetylcholine response in hM4-Gqi5 CHO-K1 cells
Conditions: human M4; for Emax at 30 µM: CHO-K1, % ACh maximum at 30 μM; for pEC50: potentiation of EC20 acetylcholine response, calcium mobilization
Outline: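 CHO-K1 cells stably co-expressing human M4 and chimeric Gqi5, loaded with Fluo-4 AM (50 min, 37 °C). Compounds in 11-point 1:3 series added first; EC20 acetylcholine added at 144 s and again at 230 s. Calcium read on FDSS at 1 Hz; EC50 and Emax from four-parameter logistic fit of potentiated EC20 response.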

Emax at 30 µM [%]	pEC50	SMILES
87	6.70	Cc1cc2nc(C(=O)NCc3cncs3)cc(=O)n2nc1N1CCc2ncc(C(F)(F)F)cc2C1 [Compound 1-42, 8-methyl-4-oxo-N-(thiazol-5-ylmethyl)-7-(3-(trifluoromethyl)-7,8-dihydro-1,6-naphthyridin-6(5H)-yl)-4H-pyrimido[1,2-b]pyridazine-2-carboxamide]
92	6.21	Cc1cc2nc(C(=O)N3CCC(c4cccnc4)C3)cc(=O)n2nc1N1CCc2ncc(C(F)(F)F)cc2C1 (stereo not shown) [Compound 1-43, 8-methyl-2-(3-(pyridin-3-yl)pyrrolidine-1-carbonyl)-7-(3-(trifluoromethyl)-7,8-dihydro-1,6-naphthyridin-6(5H)-yl)-4H-pyrimido[1,2-b]pyridazin-4-one]
92	5.95	Cc1cc2nc(C(=O)N3CC4(COC4)C3)cc(=O)n2nc1N1CCc2ncc(C(F)(F)F)cc2C1 [Compound 1-44, 8-methyl-2-(2-oxa-6-azaspiro[3.3]heptane-6-carbonyl)-7-(3-(trifluoromethyl)-7,8-dihydro-1,6-naphthyridin-6(5H)-yl)-4H-pyrimido[1,2-b]pyridazin-4-one]
100	6.78	Cc1cc2nc(C(=O)N3CC(C)(F)C3)cc(=O)n2nc1N1CCc2ncc(C(F)(F)F)cc2C1 [Compound 1-45, 2-(3-fluoro-3-methylazetidine-1-carbonyl)-8-methyl-7-(3-(trifluoromethyl)-7,8-dihydro-1,6-naphthyridin-6(5H)-yl)-4H-pyrimido[1,2-b]pyridazin-4-one]
99	6.93	Cc1cc2nc(C(=O)NC3(C#N)CC3)cc(=O)n2nc1N1CCc2ncc(C(F)(F)F)cc2C1 [Compound 1-46, N-(1-cyanocyclopropyl)-8-methyl-4-oxo-7-(3-(trifluoromethyl)-7,8-dihydro-1,6-naphthyridin-6(5H)-yl)-4H-pyrimido[1,2-b]pyridazine-2-carboxamide]
103	6.84	COC1CN(C(=O)c2cc(=O)n3nc(N4CCc5ncc(C(F)(F)F)cc5C4)c(C)cc3n2)C1 [Compound 1-47, 2-(3-methoxyazetidine-1-carbonyl)-8-methyl-7-(3-(trifluoromethyl)-7,8-dihydro-1,6-naphthyridin-6(5H)-yl)-4H-pyrimido[1,2-b]pyridazin-4-one]
72	6.49	Cc1ccc2c(-c3cnc4c(c3)CN(c3nn5c(=O)ccnc5cc3C)CC4)cccc2n1 [Compound 1-48, 8-methyl-7-(3-(2-methylquinolin-5-yl)-7,8-dihydro-1,6-naphthyridin-6(5H)-yl)-4H-pyrimido[1,2-b]pyridazin-4-one]
98	5.63	Cc1cc2nccc(=O)n2nc1N1CCc2ncc(-c3ccc(=O)n(C)c3)cc2C1 [Compound 1-49, 8-methyl-7-(3-(1-methyl-6-oxo-1,6-dihydropyridin-3-yl)-7,8-dihydro-1,6-naphthyridin-6(5H)-yl)-4H-pyrimido[1,2-b]pyridazin-4-one]
84	6.16	COc1cnccc1-c1cnc2c(c1)CN(c1nn3c(=O)ccnc3cc1C)CC2 [Compound 1-50, 7-(3-(3-methoxypyridin-4-yl)-7,8-dihydro-1,6-naphthyridin-6(5H)-yl)-8-methyl-4H-pyrimido[1,2-b]pyridazin-4-one]
85	6.53	COc1cc(-c2cnc3c(c2)CN(c2nn4c(=O)ccnc4cc2C)CC3)ccc1F [Compound 1-51, 7-(3-(4-fluoro-3-methoxyphenyl)-7,8-dihydro-1,6-naphthyridin-6(5H)-yl)-8-methyl-4H-pyrimido[1,2-b]pyridazin-4-one]
47	6.63	COc1cncc(-c2cnc3c(c2)CN(c2nn4c(=O)ccnc4cc2C)CC3)c1 [Compound 1-52, 7-(3-(5-methoxypyridin-3-yl)-7,8-dihydro-1,6-naphthyridin-6(5H)-yl)-8-methyl-4H-pyrimido[1,2-b]pyridazin-4-one]
75	6.16	Cc1cc2nccc(=O)n2nc1N1CCc2ncc(-c3ccc4nccn4c3)cc2C1 [Compound 1-53, 7-(3-(imidazo[1,2-a]pyridin-6-yl)-7,8-dihydro-1,6-naphthyridin-6(5H)-yl)-8-methyl-4H-pyrimido[1,2-b]pyridazin-4-one]
76	6.32	Cc1cc2nccc(=O)n2nc1N1CCc2ncc(-c3ccnc(C4CC4)c3)cc2C1 [Compound 1-54, 7-(3-(2-cyclopropylpyridin-4-yl)-7,8-dihydro-1,6-naphthyridin-6(5H)-yl)-8-methyl-4H-pyrimido[1,2-b]pyridazin-4-one]
94	6.32	Cc1cc2nc(C(=O)NC3CN(CC(F)(F)F)C3)cc(=O)n2nc1N1CCc2ncc(C(F)(F)F)cc2C1 [Compound 1-55, 8-methyl-4-oxo-N-(1-(2,2,2-trifluoroethyl)azetidin-3-yl)-7-(3-(trifluoromethyl)-7,8-dihydro-1,6-naphthyridin-6(5H)-yl)-4H-pyrimido[1,2-b]pyridazine-2-carboxamide]
102	6.55	Cc1cc2nc(C(=O)N3CC(C)C3)cc(=O)n2nc1N1CCc2ncc(C(F)(F)F)cc2C1 [Compound 1-56, 8-methyl-2-(3-methylazetidine-1-carbonyl)-7-(3-(trifluoromethyl)-7,8-dihydro-1,6-naphthyridin-6(5H)-yl)-4H-pyrimido[1,2-b]pyridazin-4-one]
70	6.13	COc1cc(-c2cnc3c(c2)CN(c2nn4c(=O)ccnc4cc2C)CC3)c(Cl)cn1 [Compound 1-57, 7-(3-(5-chloro-2-methoxypyridin-4-yl)-7,8-dihydro-1,6-naphthyridin-6(5H)-yl)-8-methyl-4H-pyrimido[1,2-b]pyridazin-4-one]
88	6.40	Cc1cc2nccc(=O)n2nc1N1CCc2ncc(-c3cccnc3F)cc2C1 [Compound 1-58, 7-(3-(2-fluoropyridin-3-yl)-7,8-dihydro-1,6-naphthyridin-6(5H)-yl)-8-methyl-4H-pyrimido[1,2-b]pyridazin-4-one]
99	6.61	Cc1cc2nccc(=O)n2nc1N1CCc2ncc(-c3ccc(F)c(Cl)c3)cc2C1 [Compound 1-59, 7-(3-(3-chloro-4-fluorophenyl)-7,8-dihydro-1,6-naphthyridin-6(5H)-yl)-8-methyl-4H-pyrimido[1,2-b]pyridazin-4-one]
104	6.85	COc1ccc(-c2cnc3c(c2)CN(c2nn4c(=O)ccnc4cc2C)CC3)cn1 [Compound 1-60, 7-(3-(6-methoxypyridin-3-yl)-7,8-dihydro-1,6-naphthyridin-6(5H)-yl)-8-methyl-4H-pyrimido[1,2-b]pyridazin-4-one]
96	7.15	Cc1ccc(-c2cnc3c(c2)CN(c2nn4c(=O)ccnc4c(C)c2C)CC3)cn1 [Compound 1-61, 8,9-Dimethyl-7-(3-(6-methylpyridin-3-yl)-7,8-dihydro-1,6-naphthyridin-6(5H)-yl)-4H-pyrimido[1,2-b]pyridazin-4-one]
89	6.89	Cc1c(N2CCc3ncc(-c4cnn(C)c4)cc3C2)nn2c(=O)ccnc2c1C [Compound 1-62, 8,9-dimethyl-7-(3-(1-methyl-1H-pyrazol-4-yl)-7,8-dihydro-1,6-naphthyridin-6(5H)-yl)-4H-pyrimido[1,2-b]pyridazin-4-one]
97	6.69	Cc1c(N2CCc3ncc(-c4ccnn4C)cc3C2)nn2c(=O)ccnc2c1C [Compound 1-63, 8,9-dimethyl-7-(3-(1-methyl-1H-pyrazol-5-yl)-7,8-dihydro-1,6-naphthyridin-6(5H)-yl)-4H-pyrimido[1,2-b]pyridazin-4-one]
102	7.04	Cc1c(N2CCc3ncc(C(F)(F)F)cc3C2)nn2c(=O)ccnc2c1C [Compound 1-64, 8,9-dimethyl-7-(3-(trifluoromethyl)-7,8-dihydro-1,6-naphthyridin-6(5H)-yl)-4H-pyrimido[1,2-b]pyridazin-4-one]
70	6.18	Cc1cncc(-c2cnc3c(c2)CN(c2nn4c(=O)ccnc4cc2C)CC3)c1 [Compound 1-65, 8-methyl-7-(3-(5-methylpyridin-3-yl)-7,8-dihydro-1,6-naphthyridin-6(5H)-yl)-4H-pyrimido[1,2-b]pyridazin-4-one]
77	6.08	Cc1cc2nccc(=O)n2nc1N1CCc2ncc(-c3ccc(C(F)(F)F)nc3)cc2C1 [Compound 1-66, 8-methyl-7-(3-(6-(trifluoromethyl)pyridin-3-yl)-7,8-dihydro-1,6-naphthyridin-6(5H)-yl)-4H-pyrimido[1,2-b]pyridazin-4-one]
80	6.48	Cc1cc2nccc(=O)n2nc1N1CCc2ncc(-c3ccc(C4CC4)nc3)cc2C1 [Compound 1-67, 7-(3-(6-cyclopropylpyridin-3-yl)-7,8-dihydro-1,6-naphthyridin-6(5H)-yl)-8-methyl-4H-pyrimido[1,2-b]pyridazin-4-one]

— patent publication US20250101041A1, “POSITIVE ALLOSTERIC MODULATORS OF THE MUSCARINIC ACETYLCHOLINE RECEPTOR M4” (Vanderbilt University, priority 2022, published 2025)
